Converted amounts (≈) assume the structure as drawn. Read-outs that look alike come from different tables or passages of the source.
Columns and labels:
Prostaglandin = test: Carrageenin-impregnated sponge inflammatory exudates: prostaglandin concentration; format: in vivo, rat; conditions: 24 hours
Description: (§1) The sponges were removed after 24 hours, immersed in 5 ml herparinised saline and squeezed until dry.

Leukocyte Migration = test: Carrageenin-impregnated sponge inflammatory exudates: leukocyte migration; format: in vivo, rat; conditions: 24 hours
Description: as §1

mice = test: PBQ-Induced Algesia; format: in vivo; conditions: Mus musculus, po, read-out: ED50 (reduction of number of stretches by 50%)
Description: An irritant, p-phenylbenzquinone (PBQ), was administered to mice intraperitoneally at a dose of 5 mg/kg to elicit a stretch-reflex in the animal. The number of stretches in 25 minute period were counted.

Female Wistar rats = test: Acute Anti-inflammatory Activity: Carrageenin Test; format: in vivo, rat
Description: Female Wistar rats (100-150 g, groups of 5) were starved for approximately 24 hours prior to testing and througout the experimental period. Water was available ad. lib. […] A control group received Celacol alone. Immediately after dosing, each rat received, in a plantar area of the left hind foot, an injection of 0.1 ml of the supernatant of a 30 mg/ml suspension of carrageenin in 0.9% saline. The thickness of the foot was measured with calipers 1 hour and 4 hours after the carrageenin injection. The increases in foot thickness during this time was compared with those of the control group and the percentage reduction in swelling calculated for each tested group.

HETE = test: Production of HETE (enzyme assay, Blackwell and Flower); format: biochemical; conditions: 100 μg/ml
lipoxygenase = test: Inhibition of Lipoxygenase (enzyme assay, Blackwell and Flower); format: biochemical
[1] = test system: cyclo-oxygenase and lipoxygenase
[2] = 30 mins prior to PBQ 5 mg/kg intraperitoneally, stretches in 25 minutes
[3] = rat, oral, suspension in 0.25% Celacol, reduction in foot swelling 1 to 4 hours after carrageenin, read-out: ED50

## COc1ccc2c(c1)c(CC(=O)O)c(C)n2C(=O)c1ccc(Cl)cc1 [Indomethacin]
Prostaglandin; 4 mg/kg p.o.
  Reduction of Prostaglandin Concentration: 98%
Leukocyte Migration; 4 mg/kg p.o., s.e.m
  Inhibition of Leukocyte Migration: 26% ± 7

## NC1=NN(c2cccc(C(F)(F)F)c2)CC1 [Example 1, 3-Amino-1-(m-trifluoromethylphenyl)pyrazol-2-ine]
mice; [2]
  ED50: 20.6 mg/kg
Female Wistar rats; [3]
  ED50: 11 mg/kg
HETE
  reduction of the production of HETE: less than 20%
lipoxygenase
  IC50 (lipoxygenase): 0.72 µg/mL (≈ 3.14 µM)
Leukocyte Migration; 50 mg/kg p.o., s.e.m
  Inhibition of Leukocyte Migration: 73% ± 9
[1]
  inhibition of cyclo-oxygenase and lipoxygenase activity (in words): equally active in inhibiting cyclo-oxygenase and lipoxygenase activity
[1]; compared with the other heterocyclic compounds of formula (I)
  doses at which cyclo-oxygenase and lipoxygenase are inhibited (in words): at doses substantially below those of the other heterocyclic compounds of formula (I)

## C[C@@H]1C[C@H]2[C@@H]3CCC4=CC(=O)C=C[C@]4(C)[C@@]3(F)[C@@H](O)C[C@]2(C)[C@@]1(O)C(=O)CO [Dexamethasone]
Prostaglandin; 0.1 mg/kg i.m., s.e.m
  Reduction of Prostaglandin Concentration: 64% ± 6
Prostaglandin; 0.1 mg/kg p.o.
  Reduction of Prostaglandin Concentration: ~ 30%
Leukocyte Migration; 0.1 mg/kg i.m., s.e.m
  Inhibition of Leukocyte Migration: 62% ± 17
Leukocyte Migration; 0.1 mg/kg p.o.
  Inhibition of Leukocyte Migration: ~ 30%

## CC1CC(N)=NN1c1ccc(Cl)cc1.Cl (centres unmarked) [Example 24, 3-Amino-1-p-chlorophenyl-5-methyl-2-pyrazoline hydrochloride]
Female Wistar rats; [3]
  ED50: 36 mg/kg

## NC1=NN(c2ccc(Cl)cc2)CC1 [Example 6, 3-Amino-1-p-chlorophenyl-2-pyrazoline]
mice; [2]
  ED50: 13 mg/kg
Female Wistar rats; [3]
  ED50: 22 mg/kg

## CCCCC1C(=O)N(c2ccccc2)N(c2ccccc2)C1=O [Phenylbutazone, reference compound]
Female Wistar rats; [3]
  ED50: 22 mg/kg

## NC1=NN(c2ccccc2)CC1 [Example 7, 3-Amino-1-phenyl-2-pyrazoline]
Female Wistar rats; [3]
  ED50: 60 mg/kg

## CC(=O)Oc1ccccc1C(=O)O [Aspirin, reference compound]
mice
  ED50: 70 mg/kg
Female Wistar rats; Rattus norvegicus, po, 4 h
  ED50: 70 mg/kg

Reference: patent US4556671A, “Pharmaceutical formulations” (Burroughs Wellcome Co., priority 1981, dated 1985)
